Reference: US20180326055A1, “NANOSTRUCTURE” (RIKEN, priority 2017, published 2018)

System: HeLa cell
Test: Delivery of PI by nanocapsule into cells (fluorescent microscope)
Format: cell-based
Details: incubated 1 hour
Procedure: PI-encapsulating nanocapsule was prepared in the same manner as described in Example 2. The PI-encapsulating nanocapsule dispersion was incubated with HeLa cell for 1 hour and washed with a buffer solution several times to remove the nanocapsule and free PI outside completely. The location of PI was evaluated by fluorescent microscope observation. PI alone incubated with HeLa cell for 1 hour was used as a negative control.

CC[N+](C)(CC)CCC[n+]1c(-c2ccccc2)c2cc(N)ccc2c2ccc(N)cc21.[I-].[I-] [PI, propidium iodide]
uptake of PI by cells: not taken up by cells
